Results on seven molecules are retold here after patent US20250205362A1, “LIPID NANOPARTICLES” (NATIONAL UNIVERSITY CORPORATION HOKKAIDO UNIVERSITY, priority 2022, published 2025).

One data set concerns factor 7 (F7). Conditions: knockdown of factor 7 (F7) in mouse liver; cited from earlier work.
Data set [1] in a line: Encapsulation rate of lipid nanoparticles (Ribogreen). In kind it is physicochemical. On the procedure: The encapsulation rate of the lipid nanoparticles was calculated by measuring the amount of encapsulated nucleic acid (the amount of ssODN in the case of RNP-ssODN) using an RNA intercalator Ribogreen (manufactured by Life Technologies).
Data set [2] in a line: Average particle diameter, PdI and zeta potential of lipid nanoparticles (dynamic light scattering). In kind it is physicochemical. How it is done:
The mean particle diameter (number average value), ζ-mean particle diameter, and polydispersity index (PdI) of the lipid nanoparticles in PBS(−) (pH 7.4), as well as the zeta potential in 10 mM HEPES buffer (pH 7.4), were measured using an analyzing device, Zetasizer Nano ZS ZEN3600 (Malvern), which utilizes dynamic light scattering.

The test system of another data set is TTR gene. In words: Measurement of TTR-KO activity (serum TTR protein, ELISA). Format: in vivo, mouse. The settings on record: for serum TTR activity / gene knockout versus CL4F6: FIG. 5, TTR-RNP-ssODN-loaded LNP, mouse serum 7 days after administration. How it is done: Lipid nanoparticles encapsulating Cas9/sgTTR-RNP (Cas9/sgTTR-RNP-loaded lipid nanoparticles) were intravenously injected to BALB/c mice (female, 4 weeks old) at the indicated doses. One week after intravenous injection, the mice were euthanized, blood was collected, and serum was isolated by centrifugation. The TTR protein concentration in the serum was determined using a commercially available ELISA kit (Prealbumin ELISA Kit (mouse), Aviva Systems Biology) according to the manufacturer's protocol. The serum TTR protein concentration of untreated mice was taken as 100%, and the relative value (%) of the serum TTR protein concentration of mice administered with each lipid nanoparticle was taken as the knockout activity (TTR-KO activity) of the lipid nanoparticle.

For another data set, the system named is BALB/c mice. Nature of the data set: Measurement of Fluc activity in tissues after iv Fluc mRNA-loaded lipid nanoparticles. Format: in vivo, mouse. The settings on record: for Fluc activity (gene transfer ability) in liver and spleen: Example 1, FIG. 1, Fluc mRNA-loaded LNP 50/10/40/1.5, Balb/c mice iv 0.01 mg mRNA/kg, 6 hours. On the procedure: First, lipid nanoparticles encapsulating Fluc mRNA (Fluc mRNA-loaded lipid nanoparticles) were intravenously injected into BALB/c mice (female, 4 weeks old) at a dose of 0.01 mg mRNA/kg body weight. Six hours after intravenous injection, the mice were euthanized, and each tissue was collected, frozen in liquid nitrogen, and stored at −80° C. The tissues were homogenized in passive lysis buffer (Promega) using a bead cell disrupter (Micro Smash MS-100R, TOMY Seiko). Tissue debris was removed by centrifugation and the supernatant was collected. Fluc activity in the supernatant was measured using a luciferase assay system (E1500, Promega) according to the manufacturer's protocol. Luminescence was measured using a luminometer (Luminescencer-PSN, ATTO). The protein concentration was determined using a commercially available measurement kit (BCA Protein Assay Kit, Pierce). Fluc activity was expressed as relative light units (RLU) per mg of protein.

Data set [3] is described as follows: Evaluation of biodistribution (fluorescently labeled RNP-ssODN). In kind it is in vivo, mouse. The settings on record: mice iv 2 mg RNP/kg, 1 hour; labeled TTR-RNP-ssODN in CL4H6 LNP (ssODN(−): free RNP, no LNP). How it is done: For fluorescent labeling of lipid nanoparticles, the RNP-ssODN solution described above was mixed with a three-fold molar amount of a fluorescent molecule (DyLight 650 NHS ester) in DMSO and incubated for 30 min at ambient temperature in the dark. Unreacted fluorescent molecules were removed by ultrafiltration (Amicon Ultra-0.5, MWCO 3 kDa, Millipore).
Lipid nanoparticles encapsulating the obtained fluorescently labeled RNP-ssODN (fluorescently labeled RNP-ssODN-loaded lipid nanoparticles) were intravenously injected into BALB/c mice (female, 4 weeks old) at 2 mg RNP/kg body weight. One hour after intravenous injection, the mice were euthanized and various tissues, including blood, were collected. The collected blood was immediately diluted with 1% sodium dodecyl sulfate (SDS) solution. The collected tissues were immediately weighed and then homogenized in 1% sodium dodecyl sulfate (SDS) solution. The resulting homogenates were transferred to a black 96-well plate, and fluorescence was measured using a microplate reader (VarioskanLux, Thermo Fisher Scientific) at settings of λex=652 nm and λem=672 nm. Calibration curves were generated using fluorescently labeled RNP-ssODN-loaded lipid nanoparticles and blood or tissue homogenates similarly prepared from untreated mice. Biodistribution was expressed as the percentage of injected dose per tissue or blood (% injected dose).

In another data set the test system is dsDNA from the TTR locus. In words: In vitro DNA cleavage activity. Format: biochemical, mouse. The settings on record: n=3. The text has this: Genomic DNA was collected and purified from BALB/c mouse liver tissue using a commercially available nucleic acid extraction kit (NucleoSpin Tissue, MACHEREY-NAGEL) according to the manufacturer's protocol.
The dsDNA from the TTR locus was amplified by PCR (using KAPA HiFi HotStart DNA polymerase (KAPA Biosystems)) using the genomic DNA as a template and the primer set shown in Table 4, and purified using a commercially available nucleic acid purification kit (ISOSPIN PCR Product, Nippon Gene).
The ssODN (5 equivalents relative to […]) was added to Cas9/sgTTR-RNP to form a TTR-RNP-ssODN complex. […] The reaction solution was then heated at 65° C. for 5 minutes to inactivate Cas9-RNP, and the dsDNA was then subjected to electrophoresis on a 3% agarose gel at 100 V for 40 minutes. After electrophoresis, the gel was stained (GelRed, Biotium) and visualized using a fluorescent/visible light gel imaging system (Printgraph CMOS I, ATTO). Bands were quantified using image analysis software (ImageJ).
DNA cleavage was calculated using the following formula: in the formula, Int_full and Int_cleaved indicate the intensities derived from full length (uncleaved) and cleaved DNA, respectively.

[4] abbreviates: Fluc mRNA-loaded LNP, comparison CL4F11-ζ-2, SM, ALC, MC3, Table 21.
Where [5] appears, read: Fluc mRNA-loaded LNP, lipid/DSPC/cholesterol/PEG-DMG 50/10/40/1.5 (MC3: 50/10/38.5/1.5) mol%, Table 15.
[6] abbreviates: TTR-RNP-ssODN-loaded LNP, comparison CL4F11-ζ-2, SM, ALC, MC3, Table 20.
The mark [7] stands for this setting: Fluc mRNA-loaded LNP, cationic lipid/DSPC/cholesterol/PEG-DMG 50/10/40/1.5 mol%, Table 5.
Setting [8] is: TTR-RNP-ssODN-loaded LNP (ssODN-TTR_3-40%), cationic lipid/DSPC/cholesterol/PEG-DMG 50/10/40/3.5 mol%, Table 8.
Where [9] appears, read: Fluc mRNA-loaded LNP, CL4F11-e-3/neutral lipid (DSPC or DOPE)/cholesterol/PEG-DMG 50/10/40/0.75 mol%.
The mark [10] stands for this setting: TTR-KO activity in mice, TTR-RNP-ssODN-loaded LNP CL4H6/DSPC/cholesterol/PEG-DMG 50/10/40/3.5 mol%, sgTTR-G211 (TTR_3) or sgTTR-G269 (TTR_4).
The mark [11] stands for this setting: TTR-RNP-ssODN-loaded LNP, sgTTR-G211, CL4H6/DSPC/cholesterol/PEG-DMG 50/10/40/3.5 mol%, Table 11.

Turning to `CCCCCC/C=C\COC(=O)CCCCCCCC(CCCCCCCC(=O)OC/C=C\CCCCCC)OC(=O)CCCN(C)C` [L319], in the data set with factor 7 (F7), the “ED50 in F7 knockdown” value is recorded as 0.01 mg siRNA/kg.

As for `CCCCC/C=C\C/C=C\CCCCCCCCC(CCCCCCCC/C=C\C/C=C\CCCCC)OC(=O)CCCN(C)C` [MC3, DLin-MC3-DMA, reference compound], the Encapsulation rate was found to be 87.1% in data set [1] (setting [4]), 79.3% in data set [1] (setting [5]) and 78.7% in data set [1] (setting [6]). The Number-average particle diameter is listed as 71.0 nm in data set [2] (setting [4]), 48.0 nm in data set [2] (setting [5]) and 82.7 nm in data set [2] (setting [6]). Moreover, the PdI in data set [2] (setting [4]) was 0.190; in data set [2] (setting [5]), 0.198; in data set [2] (setting [6]), 0.213. Also, the ζ-average came out at 112.4 nm in data set [2] (setting [4]), 68.6 nm in data set [2] (setting [5]) and 155.9 nm in data set [2] (setting [6]). In addition, the figures for the ζ-potential in data set [2] (setting [4]), in data set [2] (setting [5]) and in data set [2] (setting [6]) were −2.17 mV, 2.19 mV and 0.52 mV, respectively. In the data set with factor 7 (F7), the “ED50 in F7 knockdown” value is 0.005 mg siRNA/kg.

As for “7-(4-(dipropylamino)butyl)-7-hydroxytridecane-1,13-diylbis(3-heptyldecanoate) [CL4F10-b-7]”, the “serum TTR activity / gene knockout versus CL4F6” value with TTR gene is “lower serum TTR activity and higher gene knockout”. In data set [1] (setting [7]), this molecule showed an Encapsulation rate of 94.6%. Moreover, the Encapsulation rate in data set [1] (setting [8]) turned out to be 86.0%. Besides, in data set [2] (setting [7]), the Number-average particle diameter is 35.3 nm, the PdI is on record as 0.196, the ζ-average is reported as 65.3 nm and the ζ-potential is reported as −3.30 mV. In data set [2] (setting [8]), this molecule registered a Number-average particle diameter of 82.5 nm, a PdI of 0.104, a ζ-average of 127.1 nm and a ζ-potential of −0.48 mV. For the same molecule, in the data set on BALB/c mice, the “Fluc activity (gene transfer ability) in liver and spleen” value was “equal to or greater than that of CL4F6”.

Consider `CCCCCCCC/C=C\CCCCCCCC(=O)OC[C@H](COP(=O)(O)OCCN)OC(=O)CCCCCCC/C=C\CCCCCCCC` [DOPE, 1,2-dioleoyl-sn-glycero-3-phosphoethanolamine], for which, in data set [1] (setting [9]), the Encapsulation rate came out at 89.1%. In addition, in data set [2] (setting [9]), the Number-average particle diameter is 55.7 nm, the PdI amounted to 0.196, the ζ-average came out at 82.1 nm and the ζ-potential is listed as −2.35 mV. Moreover, the “Fluc activity in liver and spleen” value in the data set with BALB/c mice (Example 2, FIG. 3, CL4F11-e-3 LNP with DSPC or DOPE, Balb/c mice) is on record as “stable activity over a wide range of DOPE contents”.

For “7-(4-(dipropylamino)butyl)-7-hydroxytridecane-1,13-diylbis(3-hexylnonanoate) [CL4F9-b-6]”, in the data set on TTR gene, the “serum TTR activity / gene knockout versus CL4F6” value was “lower serum TTR activity and higher gene knockout”. Moreover, the Encapsulation rate in data set [1] (setting [7]) worked out at 91.4%. Further, in data set [1] (setting [8]), the Encapsulation rate worked out at 84.9%. For the same molecule, in data set [2] (setting [7]), the Number-average particle diameter amounted to 45.1 nm, the PdI is given as 0.267, the ζ-average was 81.5 nm and the ζ-potential is given as −4.32 mV. In data set [2] (setting [8]), this molecule had a Number-average particle diameter of 99.6 nm, a PdI of 0.145, a ζ-average of 141.5 nm and a ζ-potential of −0.10 mV. Moreover, the “Fluc activity (gene transfer ability) in liver and spleen” value in the data set on BALB/c mice was “equal to or greater than that of CL4F6”.

For the molecule `CCCCC/C=C\C/C=C\CCCCCCCCOC1(OCCCCCCCC/C=C\C/C=C\CCCCC)CCN(C)CC1` [YSK05], the “ED50 in F7 knockdown” value with factor 7 (F7) was 0.06 mg siRNA/kg.

B1: ssODN-TTR_3-80%: ssODN pairing with sgTTR-G211, 80% matched; SEQ ID NO 4 (nucleic acid)
DNA: AAAAAAAAAAAAAAAAAAAAAAAAAAAAAAAAAAAAAAAAAAAAAAAAAAAAAAAAAACTGTAGACGTGGCTGTTTAAAAAAAAAAAAAAAAAAAAAAAAAAAAAAAAAAAAAAAAAAAAAAAAAAAAAAAA
In data set [3], B1 registered an ID %/tissue blood of 11.71 ID %/tissue, an ID %/tissue kidney of 0.16 ID %/tissue, an ID %/tissue liver of 43.14 ID %/tissue and an ID %/tissue lung of 0.33 ID %/tissue. In data set [3], this molecule had an ID %/tissue spleen of 3.21 ID %/tissue. In the data set with TTR gene (setting [10]), the “KO (%) 1st test” value is given as 0.3% and the “KO (%) 2nd test” value is 5.6%. This molecule yielded an Encapsulation rate in data set [1] (setting [11]) of 69.4%. In data set [2] (setting [11]), the Number-average particle diameter is 96.8 nm, the PdI worked out at 0.112, the ζ-average came to 141.3 nm and the ζ-potential is listed as 2.88 mV. Besides, the “in vitro DNA cleavage activity” value in the data set on dsDNA from the TTR locus (FIG. 7, TTR-RNP-ssODN, sgTTR-G211, 37° C. 30 min) is reported as “extremely low DNA cleavage activity”. Besides, the “relative DNA cleavage activity at 37° C.” value in the data set on dsDNA from the TTR locus (FIG. 22(A), sgTTR-G211 RNP, activity without ssODN = 100%) is “about 20%”.
